Results: patent publication US12691151B2, “Methods and compositions for improving oncolytic virus infection for nonpermissive cancers” (Arizona Board of Regents on behalf of Arizona State …, priority 2019, dated 2026)
Entries after “also recorded” stand apart in the source; their conditions may differ.

What was measured:
Type in all cases: cell-based, human
[1] = test system: PANC-1 cells
[2] = test system: HT29 cells
[3] = test system: HT29 cells; remark: listed apart in the source
[4] = test system: MDA-MB-435 cells
[5] = test system: PANC-1 cells; remark: listed apart in the source
[6] = test system: PANC-1 cells; remark: listed apart in the source
[7] = test system: MDA-MB-435 cells; remark: listed apart in the source
[8] = test system: A549 cell line; test: MYXV replication in the permissive A549 cell line

CCC(=C/[C@H](C)C/C=C/C(C)=C/[C@@H](C)C(=O)[C@@H](C)[C@H](O)[C@@H](C)C/C(C)=C/C(=O)O)/C=C/[C@@H]1OC(=O)C=C[C@@H]1C [Leptomycin B]
cell viability (ATP), Leptomycin B pretreatment plus MYXV [1]: further reduced the viability; also recorded: reduced cell viability | cell viability (ATP) ([1]; 40 h): sensitive to Leptomycin B treatment alone | viral replication (virus titer) [2]: enhanced viral replication; also recorded: enhanced MYXV replication | GFP (early/late) and TdTomato (late) expression [3]: enhanced MYXV early (GFP) and late (TdTomato) gene expression levels | formation of foci [3]: allowed formation of small foci | viral replication (virus titer) [4]: enhanced MYXV gene expression and replication | GFP (early/late) and TdTomato (late) expression [5]: enhanced GFP (early/late) and TdTomato (late) expression; also recorded: enhanced MYXV gene expression | formation of foci [5]: allowed formation of small foci | viral replication (virus titer) [6]: enhanced MYXV gene expression and replication | GFP (early/late) and TdTomato (late) expression [7]: enhanced GFP (early/late) and TdTomato (late) expression; also recorded: enhanced MYXV gene expression | formation of foci [7]: allowed formation of small foci | viral replication [8]: only increased viral replication at an MOI of 0.1 or lower
